Data: patent US11564913B2, “Compositions and methods for treating cancer” (Children's Hospital Medical Center, priority 2019, dated 2023)

How the values were obtained:
[1] = tested on: Vav3−/− p190-BCR-ABL leukemia; assay: Vav3−/− p190-BCR-ABL leukemic mice, osmotic pumps; type: in vivo
Procedure: FIG. 14: IODVA1 targets Vav3 in vitro and in vivo. (A) Ba/F3 cells expressing empty vector Mieg3 or p190-BCR-ABL1 were treated with vehicle control or IODVA1 (IO1, 3 μM) for 30 min and incubated with GST-Rac and glutathione beads. Beads were washed and the protein complexes were separated on SDS-PAGE and immunoblotted for pVav3. Input Vav3 was used as control. (B) Binding affinity (Kd) between IODVA1 and Vav3 (green), LARG (brown), and RacGDP (blue). […] Error bars=SD; N=3. (C) Quantification of the average number of colonies made by bone marrow wild-type (black) and Vav3^−/− (lilac) p190-BCR-ABL1 leukemic cells treated with vehicle control or IODVA1 (IO1, 1 and 3 μM) (* p≤0.05; ** p≤0.01; *** p≤0.001; ns, not significant). (D) Representative histogram data of the cell cycle analysis of wild-type (black and grey bars) and Vav3^−/− (dark and light lilac) bone marrow cells expressing p190-BCR-ABL and treated with vehicle control or IODVA1 (IO1, 3 μM) for 20 h. (E) Quantification by densitometry of the pVav3 band from FIG. 14A. (F) Kaplan-Meier plot showing survival of wild-type or Vav3^−/− p190-BCR-ABL1 leukemic mice post-treatment with osmotic pumps implanted subcutaneously and carrying vehicle control or IODVA1 (IO1, 1 mM). (G) Count (% leukemic progenitors in peripheral blood) of residual leukemic (EGFP^+-BCR-ABL1) cells at week 1 and 2 post-treatment for mice from (F). […]

[2] = tested on: active GTP-bound Ras in ST8814 cells; assay: Active Ras pull-down with GST-RafRBD; type: cell-based; conditions: 2 μM
Procedure: FIG. 4. IODVA1 inhibits proliferation of cancer model cells. (A) IODVA1 is a potent cell proliferation inhibitor. MCF10A, MCF7, MDA-MB-231, and T47D cells were grown in the presence of the indicated IODVA1 concentrations and counted for 4 or up to 7 days. Each dot and bar is the mean±stdev respectively, of 3 independent experiments, with 2 technical replicates in each experiment. (B) Number of colonies made by MCF7, T47D, and MDA-MB-231 cells at the indicated IODVA1 concentrations. Results shown are mean±stdev of 2 independent experiments with 4 technical replicates each. (C) IODVA1 deactivates Ras at late incubation times. […] Quantification summary of 2 independent experiments is presented in the graph. n.s.—not significant, *-p<0.05, **-p<0.01, ****-p<0.0001. (D) IODVA1 inhibits proliferation of ST8814 cells. ST8814 cells were grown in the presence of the indicated IODVA1 concentrations and counted daily for 4 days. Each dot and bar is the mean and standard deviation respectively, of 3 independent experiments.
To check if IODVA1 inhibits Ras activation in cells, applicants determined the levels of active-GTP-bound-Ras in ST88-14 cells treated with IODVA1 (2 μM) or vehicle control at various time points. GST-RafRBD bound glutathione-beads were incubated with ST8814 cell lysates, thoroughly washed, and the protein complex separated on SDS-PAGE. Levels of GTP-bound pan-RAS proteins bound to RafRBD were determined by immunoblotting.
Levels of active Ras, Rac, Cdc42 and RhoA were determined using the Active Ras Pull-Down and Detection Kit, Active Rac Pull-Down and Detection Kit (Thermo Scientific) and RhoA/Rac1/Cdc4 Pull-down Activation Assay Combo Biochem Kit (Cytoskeleton). Cells were cultured and treated as indicated and lysed in buffer provided by the manufacturer. […] Proteins were resolved by SDS-PAGE, transferred to nitrocellulose and the level of active GTPase relative to input lysate were determined by immunoblotting analysis using the anti-Ras, anti-Rac, anti-Cdc42, or anti-RhoA antibody supplied by the manufacturer.

Structure (SMILES): OC1(c2ccccn2)N=C(Nc2nc3ccccc3[nH]2)N=C1c1ccccn1 (stereo not shown) [IODVA1, (Z)-2-((1H-benzo[d]imidazol-2-yl)imino)-4,5-di(pyridin-2-yl)-2,5-dihydro-1H-imidazol-5-ol]
- response (survival) of Vav3−/− leukemic mice [1]: did not respond
- levels of active Ras versus vehicle control ([2]; 24 h): similar
- levels of active Ras versus vehicle control ([2]; 48 h): decrease in active Ras levels is seen
- decrease in active Ras levels ([2]; 72 h): very noticeable
